# Values joined by “and” are separate entries in the source; they are usually repeats but may differ in a detail not shown here. Equal entries are not always repeated.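 Each compound was tested at five concentrations against cells in 96-well plates for 48 hours. The concentration for 50% growth inhibition is given as GI50. TGI denotes the concentration required for complete inhibition of growth.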
# Key:
# Experiment in all cases: NCI tumour cell line growth inhibition, 48 h
# DU-145 prostate = system: DU-145 prostate
# ACHN renal = system: ACHN renal
# NCI-H23 lung = system: NCI-H23 lung
# SN12C renal = system: SN12C renal
# BT-549 breast = system: BT-549 breast
# OVCAR-4 ovarian = system: OVCAR-4 ovarian
# SR leukemia = system: SR leukemia
# T-47D breast = system: T-47D breast
# HCT-116 colon = system: HCT-116 colon
# SNB-75 CNS = system: SNB-75 CNS
SMILES,GI50 (DU-145 prostate),TGI (DU-145 prostate),GI50 (ACHN renal),TGI (ACHN renal),GI50 (NCI-H23 lung),TGI (NCI-H23 lung),GI50 (SN12C renal),TGI (SN12C renal),GI50 (BT-549 breast) [µM],TGI (BT-549 breast),GI50 (OVCAR-4 ovarian),TGI (OVCAR-4 ovarian),GI50 (SR leukemia) [µM],TGI (SR leukemia),GI50 (T-47D breast),TGI (T-47D breast),GI50 (HCT-116 colon),TGI (HCT-116 colon),GI50 (SNB-75 CNS),TGI (SNB-75 CNS)
COc1ccc(-n2nc(C)c3c(Nc4ccc(NC(=O)Nc5cccc(C(F)(F)F)c5)cc4)ncnc32)cc1,1.97 µM,4.54 µM,1.6 µM,3.43 µM,1.68 µM,3.68 µM,1.79 µM,3.86 µM,1.97,5.32 µM,2.1 µM,5.27 µM,2.54,9.38 µM,1.64 µM,4.84 µM,1.62 µM,3.46 µM,0.87 µM,3.03 µM
Cc1cccc(CNc2c3ccccc3nc3ccccc23)c1,3.28 µM,11.7 µM,1.52 µM,3.47 µM,1.63 µM,4.22 µM,2.4 µM,10.1 µM,2.34,6.32 µM,1.74 µM,5.59 µM,1.94,8.62 µM,1.83 µM,4.61 µM,0.927 µM,4.4 µM,1.08 µM,8.32 µM
CC(=O)c1cc2c(Br)cccc2oc1=O,,> 100 µM,,> 100 µM,,> 100 µM,,> 100 µM,,> 100 µM,,> 100 µM,,> 100 µM,,> 100 µM,,> 100 µM,,> 100 µM
COC(=O)NC1(NC(=O)OC)NC(=O)c2ccccc2N1,,> 100 µM,,> 100 µM,,> 100 µM,,> 100 µM,,> 100 µM,,> 100 µM,,> 100 µM,,> 100 µM,,> 100 µM,,> 100 µM
O=[N+]([O-])c1ccc(Sc2cccc[n+]2[O-])c2nonc12,3.55 µM,13.1 µM,3.67 µM,14.2 µM,7.97 µM,26.8 µM,8.04 µM,22.6 µM,12.7,25.8 µM,3.61 µM,13.6 µM,0.703,> 100 µM,1.69 µM,6.5 µM,1.4 µM,12.5 µM,11.1 µM,39.6 µM
CCC/C=C/C=C/C(=O)OC1/C(=C/C(=O)OC)CC2CC(C(C)O)OC(=O)CC(O)CC3CC(OC(C)=O)C(C)(C)C(O)(CC4C/C(=C/C(=O)OC)CC(/C=C/C(C)(C)C1(O)O2)O4)O3 (configuration not stated),> 11 µM,> 12.5 µM,> 12.5 µM,11 µM and > 12.5 µM,> 12.5 µM,> 10.9 µM and 11 µM and > 12.5 µM,> 10.9 µM and 7.93 µM and > 12.5 µM,> 10.9 µM and 11 µM and > 12.5 µM,> 12.5,11 µM and > 12.5 µM,> 6.88 µM and 3.48 µM and > 12.5 µM,> 6.88 µM and 10.1 µM and > 12.5 µM,10.8,11 µM and > 12.5 µM,> 12.5 µM,11 µM and > 12.5 µM,> 10.9 µM and 5.2 µM and > 12.5 µM,> 10.9 µM and 11 µM and > 12.5 µM,10.3 µM and 2.85 µM and > 12.5 µM,10.9 µM and 9.84 µM and > 12.5 µM
O=C(O)/C=C/c1c2ccc(=O)c(O)c-2oc2c(O)c(O)ccc12,,> 100 µM,,> 100 µM,,> 100 µM,,32.3 µM,,> 100 µM,,> 100 µM,,> 100 µM,,> 100 µM,,40 µM,,> 100 µM
COc1ccc(C2=C(c3ccc(OC)cc3)C(=O)OC2)cc1,2.38 µM,> 46.6 µM,2.72 µM,23.4 µM,3.46 µM,30.8 µM,7.68 µM,42.2 µM,11.7,> 100 µM,16 µM,> 100 µM,0.238,0.663 µM,8.89 µM,> 65.6 µM,1.97 µM,11.8 µM,3.16 µM,> 100 µM
CC(C)(C)OC(=O)N(CCCCN(CCCn1c2c(c3ccccc3c1=O)C(=O)c1ccccc1-2)C(=O)OC(C)(C)C)CCCn1c2c(c3ccccc3c1=O)C(=O)c1ccccc1-2,48.1 µM,> 100 µM,14.3 µM,> 100 µM,25 µM,> 100 µM,36 µM,> 100 µM,> 100,> 100 µM,> 100 µM,> 100 µM,0.304,> 100 µM,> 100 µM,> 100 µM,1.9 µM,> 100 µM,> 100 µM,> 100 µM
Nc1[nH]nc(Nc2ccccc2)c1-c1nc2ccccc2s1,3.02 µM,11.6 µM,2.08 µM,6.27 µM,1.73 µM,5.04 µM,1.58 µM,3.24 µM,1.52,3.34 µM,2.19 µM,11.8 µM,1.84,8.02 µM,2.2 µM,11.2 µM,1.29 µM,2.71 µM,2.39 µM,10.9 µM
O=CNC(Cc1cnc[nH]1)C(=O)O (configuration not stated),,> 100 µM,,> 100 µM,,> 100 µM,,> 100 µM,,> 100 µM,,> 100 µM,,> 100 µM,,> 100 µM,,> 100 µM,,> 100 µM
CC(NCCN(C)C)C1CCC2C3CCc4cc(O)ccc4C3CCC12C (configuration not stated),,18.6 µM,,3.99 µM,,16.5 µM,,4.42 µM,,31.4 µM,,9.55 µM,,3.85 µM,,5.29 µM,,7.7 µM,,10.2 µM
CCN1C(=O)N(CC)C2C1NN=c1s/c(=C3\C(=O)Nc4ccccc43)c(=O)n12 (configuration not stated),0.492 µM,33.6 µM,0.606 µM,> 47.6 µM,0.752 µM,24 µM,0.6 µM,> 100 µM,1.06,32.3 µM,> 59.1 µM,> 100 µM,0.292,> 62 µM,0.42 µM,> 100 µM,0.485 µM,> 61.6 µM,< 0.0447 µM,0.429 µM
C[C@H]1C[C@@H](n2c(Nc3ccc(OC(F)(F)F)cc3)nc3cc(CCC(=O)O)ccc32)CC(C)(C)C1,13.8 µM,27.2 µM,13.1 µM,27.1 µM,12.9 µM,30.5 µM,9.95 µM,28 µM,3.13,12 µM,11.2 µM,29.1 µM,6.23,36.6 µM,14.3 µM,44.5 µM,5.04 µM,18.5 µM,13.8 µM,28 µM
O=C1c2ccccc2C(=O)c2c1ccc1conc21,,7.07 µM,,3.75 µM,,3.3 µM,,3.61 µM,,3.68 µM,,2.02 µM,,18.3 µM,,2.02 µM,,3.51 µM,,20.5 µM
CC(=O)CC[N+](C)(C)C,,> 79 µM,,26.5 µM,,59.6 µM,,53.6 µM,,62.6 µM,,30.2 µM,,21.5 µM,,52.7 µM,,54.4 µM,,70.3 µM
COc1ccc2nc3cc(Cl)ccc3c(Nc3ccccc3-c3ccccc3Nc3c4ccc(Cl)cc4nc4ccc(OC)cc34)c2c1,,> 100 µM,,> 59.2 µM,,> 100 µM,,> 84.4 µM,,42.2 µM,,81.6 µM,,> 66.8 µM,,75.4 µM,,> 100 µM,,> 72 µM
CCc1nc(N)nc(N)c1C#CC(C)c1ccc(-c2ccncc2)cc1Cl (configuration not stated),0.0242 µM and 0.0658 µM,5.01 µM and 13.7 µM,0.00775 µM and 0.0304 µM,4.57 µM and 13.7 µM,0.00854 µM and 0.0332 µM,5.01 µM and 5.71 µM,0.0189 µM and 0.148 µM,5.67 µM and 17.2 µM,,2.8 µM and 12.1 µM,,7.39 µM and 26.2 µM,,2.27 µM and 6.27 µM,0.0896 µM and 0.675 µM,2.2 µM and 13.6 µM,< 0.005 µM,2.77 µM and 13 µM,0.505 µM and 1.67 µM,2.76 µM and 9.74 µM
O=C(CCN1CCCC1)Nc1ccc2c(Nc3ccc(F)cc3)c3ccccc3nc2c1,0.513 µM,2.03 µM,0.526 µM,1.98 µM,1.08 µM,2.63 µM,0.523 µM,2.43 µM,1.73,4.28 µM,1.21 µM,3.03 µM,0.174,2.3 µM,1.01 µM,3.79 µM,0.906 µM,2.58 µM,1.37 µM,2.72 µM
O=[N+]([O-])c1ccccc1/C=N\NC(=S)N/N=C/c1ccccc1[N+](=O)[O-],5.34 µM,38.2 µM,7.53 µM,> 100 µM,10.8 µM,> 100 µM,10.6 µM,> 100 µM,39.6,> 100 µM,20.6 µM,> 100 µM,2.87,> 100 µM,4.93 µM,> 100 µM,3.78 µM,> 100 µM,2.21 µM,8.75 µM
CN(C)Cc1ccc(NC(=O)c2cncc(C#Cc3cnc(N)c4ncccc34)c2)cc1C(F)(F)F,1.73 µM,3.16 µM,1.52 µM,2.89 µM,1.25 µM,2.68 µM,1.54 µM,3.02 µM,2.21,4.36 µM,1.16 µM,2.56 µM,1.43,3.44 µM,15.8 µM,65.3 µM,1.08 µM,2.33 µM,1.69 µM,3.09 µM
O=C(O)c1cccc([As]=[As]c2cccc(C(=O)O)c2)c1 (configuration not stated),,> 100 µM,,> 100 µM,,> 100 µM,,> 100 µM,,> 100 µM,,> 100 µM,,89.5 µM,,> 100 µM,,> 100 µM,,> 100 µM
